From patent US10941151B2, “Chiral N-acyl-5,6,7(8-substituted)-tetrahydro-[1,2,4]triazolo[4,3-a]pyrazines as selective NK-3 receptor antagonists, pharmaceutical composition, methods for use in NK-3 receptor mediated disorders and chiral synthesis thereof” (Ogeda SA, priority 2011, dated 2021)

Key:
[1] = tested on: circulating levels of luteinizing hormone (LH); test: Castrated male rat model, circulating luteinizing hormone (LH); format: in vivo; conditions: single intravenous 10 mg/kg dose, castrated male Sprague-Dawley rats, 1 hour after dosing
Excerpt: Vehicle, N=10 rats; Compound n^o 1, N=9 rats.
Vehicle, n=5 rats; Compound n^o 19, n=5 rats.
In humans and rodents, castration is well-precedented to permit heightened, persistent GnRH signaling and consequent elevation of circulating LH. Thus, a castrated rat model is used to provide a broad index for measurement of LH inhibition as a marker of test compound inhibition of the GnRH signaling pathway.
Castrated adult male Sprague-Dawley (SD) rats (150-175 g,) were purchased from Janvier (St Berthevin, France). […] The animals were allowed 2 weeks of postoperative recovery prior to study. Animals were handled on a daily basis. Standard diet and tap water were provided ad libitum. Animal cage litters were changed once a week. On the study day, animals were acclimated to the procedure room for a period of one hour prior to the initiation of the experiment.
Compounds of the invention were formulated as a […] with 90 g/L (2-Hydroxypropyl)-β-CycloDextrin.
After basal sampling (T0) a single dose of compounds of the invention or vehicle was administrated intravenously to rats. Blood was then collected at 60 min post dosing. Blood samples were obtained via tail vein bleed, drawn into EDTA-containing tubes and centrifuged immediately. […] Serum LH levels were determined using radioimmunoas say kit from RIAZEN—Rat LH, Zentech (Liège, Belgium). […]

[2] = tested on: circulating levels of testosterone; test: Gonad-intact adult male rat, circulating testosterone; format: in vivo; conditions: single intravenous 50 mg/kg dose, gonad-intact male Sprague-Dawley rats, over 210 minute test period (AUC)

SMILES | circulating LH levels [1] | plasma testosterone levels [2]
Cc1nc(-c2nnc3n2CCN(C(=O)c2ccc(-c4cccs4)cc2)[C@@H]3C)cs1 [Compound 1, (R)-(8-methyl-3-(2-methylthiazol-4-yl)-5,6-dihydro-[1,2,4]triazolo[4,3-a]pyrazin-7(8H)-yl)(4-(thiophen-2-yl)phenyl)methanone] | significantly suppressed | significantly suppressed
Cc1csc(-c2nnc3n2CCN(C(=O)c2ccc(-c4cccs4)cc2)[C@@H]3C)n1 [Compound 19, (R)-(8-methyl-3-(4-methylthiazol-2-yl)-5,6-dihydro-[1,2,4]triazolo[4,3-a]pyrazin-7(8H)-yl)(4-(thiophen-2-yl)phenyl)methanone] | significantly suppressed | 
